Publication PMC11831190 (MedComm, 2025)
Where two headings read alike, the source gives them in different places.

Test: Pharmacokinetic evaluation of Oraxol in patients with MBC (weeks 1 and 4)
Type: in vivo, human
Conditions: for AUC(0-t) / Cmax / Tmax: human, in vivo, oral; for AUC(0-t): read-out: AUC (0-52) Mean
Experimental: Similarly, patients were readmitted to the clinic the preceding night dosing on week 4, day 1, and remained at the clinic until pharmacokinetic sampling was completed on Day 3 of that week.
Analytical determination of pharmacokinetic parameters was conducted in patients who provided at least one post‐dose blood sample. The study weeks were counted consecutively starting from week 1 for pharmacokinetic sampling. However, for week 4 pharmacokinetic sampling, a delay was permitted at the investigator's discretion to allow the relevant time to recuperate from any intolerable toxicity, if present. In the instance of treatment postponement, pharmacokinetic samples for week 4 were collected immediately after treatment resumed, regardless of whether a dose reduction were applied.
The pharmacokinetic parameters were synthesized utilizing descriptive data analysis, including mean, standard deviation, median, minimum, and maximum values. What is more, summaries of pharmacokinetic parameters included the geometric average and the coefficient of variation. Individual concentration data and corresponding area under the AUC timepoint data were tabulated in both nominal and actual sampling times for all patients. The concentration‐timepoint data (in actual times) were presented graphically for each subject.
The pharmacokinetic parameters were analyzed using logarithmic transformation, followed by statistical evaluation through analysis of variance, considering subject and treatment effects. […] This analysis allowed for the assessment of the pharmacokinetic profile of Oraxol over the course of treatment.

For `COc1cc2c(cc1OC)CN(CCc1ccc(-n3nnc(-c4cc(OC)c(OC)cc4NC(=O)c4cc(=O)c5ccccc5o4)n3)cc1)CC2.CS(=O)(=O)O.O` [HM30181A, HM30181A methanesulfonate monohydrate], the Tmax (0-24) Median (Study day 1) was 5 h and the Tmax (0-24) Median (Study day 22) was 4.5 h.
`CC(=O)O[C@H]1C(=O)[C@@]2(C)[C@H]([C@H](OC(=O)c3ccccc3)[C@]3(O)C[C@H](OC(=O)[C@H](O)[C@@H](NC(=O)c4ccccc4)c4ccccc4)C(C)=C1C3(C)C)[C@]1(OC(C)=O)CO[C@@H]1C[C@@H]2O` [Paclitaxel] showed a Tmax (0-24) Median (Study day 1) of 1 h, a Tmax (0-24) Median (Study day 22) of 1 h and an AUC(0-t) (Study day 1) of 3.54 µg·h/mL. The Cmax (Study day 1, read-out: Cmax (0-24) Mean) was 0.288 µg/mL, the Cmax (Study day 1, read-out: Cmax (24-48) Mean) was 0.338 µg/mL and the Cmax (Study day 1, read-out: Cmax (48-52) Mean) was 0.325 µg/mL. The Cmax (Study day 1, read-out: Cmax Mean) was 0.404 µg/mL, the Tmax (Study day 1, read-out: Tmax (24-48) Median) was 25.5 h and the Tmax (Study day 1, read-out: Tmax (48-52) Median) was 49.3 h. The AUC(0-t) (Study day 22) was 3.52 µg·h/mL, the Cmax (Study day 22, read-out: Cmax (0-24) Mean) was 0.329 µg/mL and the Cmax (Study day 22, read-out: Cmax (24-48) Mean) was 0.289 µg/mL. The Cmax (Study day 22, read-out: Cmax (48-52) Mean) was 0.313 µg/mL, the Cmax (Study day 22, read-out: Cmax Mean) was 0.399 µg/mL and the Tmax (Study day 22, read-out: Tmax (24-48) Median) was 25 h. The Tmax (Study day 22, read-out: Tmax (48-52) Median) was 49 h.
